{"source": "patent US11266715B2", "about": "“C3A receptor agonists for use against ischemic brain injury, stroke, traumatic brain injury, spinal cord injury and neurodegenerative disorders” (priority 2016, dated 2022)", "system": "WT mice subjected to photothrombotic stroke in the motor cortex", "assay": "Grid walking task after photothrombotic stroke", "type": "in vivo, mouse", "experimental": "Cortical photothrombosis was induced using the Rose Bengal method (Lee et al., 2007; Watson et al., 1985) with some modifications. Anesthesia was induced with isoflurane (Forene®, Abbott) in air and oxygen (1:1) initially at 5% and reduced to 2.5% during the surgical procedure. Body temperature was monitored by a rectal probe and maintained at 37° C. using a homeothermic control unit (Harvard Apparatus). Anesthetized mice were placed in a stereotaxic frame, the skull was exposed through a midline scalp incision and Rose Bengal (200 μl, 10 mg/ml solution in sterile saline, Sigma) was injected intraperitoneally. After 5 min, the skull and underlying brain tissue were illuminated for 12 min by a 2 mm diameter cold laser beam (50 mW, 561 nm; Cobolt AB) positioned at AP +0.5 mm and ML −2.7 mm relative to Bregma, targeting the border between left primary somatosensory and motor cortex (Porritt et al., 2012). For intervention experiments targeting motor cortex, stroke was induced as above with the following modifications: Transcranial illumination lasting 15 min was delivered using cold light source (LQ1600, Fiberoptic-Heim AG) equipped with 2 mm wide fiber optic probe and directed to AP +0 and ML −1.5 relative to Bregma. After illumination, the scalp was sutured and mice were placed in a warm cage for 45 min to recover from anesthesia prior to being returned to the home cage. Mice were provided with moist mashed food placed on the floor of the home cage and their weight was monitored daily for 7 days after surgery. There were no significant differences in body weight, body temperature (36.5±0.5° C.), duration of surgery, or post-stroke mortality between cohorts. Each cohort contained an even distribution of mice from the matched strains or treatment groups.\nPurified human C3a peptide (Complement Technologies) was diluted in sterile phosphate buffered saline (PBS) to a concentration of 200 nM and a total of 20 μl (10 μl/nostril; corresponding to approximately 1.13 μg/kg body weight) of peptide solution or PBS was given intranasally to awake, hand-restrained mice held in a supine position. Solutions were administered through a pipette tip, drop-wise in 5 μl portions divided by 1 min intervals to allow for absorption. C3a or PBS was given every 24 hours on days 7 to 21 post-stroke for the short-term study or on days 7 to 28 post-stroke for the long-term study. Mice were assigned to C3a or PBS treatment using randomization stratified by body weight to avoid potential confounding effects of body weight on behavioural performance. The investigators carrying out behavioural studies and analysing data were blinded to treatment group. For the assessment of potential systemic anaphylactic response due to intranasal C3a inoculation, body temperature was monitored using a rectal temperature probe (Harvard Apparatus) inserted approximately 4 mm into the rectum of awake mice restrained by the scruff. Baseline temperature was taken before intranasal administration and 5, 15, 30, 45 and 75 min after C3a or PBS administration.\nFunctional impairment of mice treated intranasally with C3a or vehicle was assessed using a modified cylinder test and a grid walking task to closely evaluate forepaw function. Mice were tested once on each task one week before stroke induction to establish baseline performance. Next, they were tested on days 7, 14 and 21 (short-term study) or days 7, 14, 28, 42 and 56 (long-term study) post-stroke. […]", "data": [{"substance": "C3a: Purified human C3a peptide (Complement Technologies), C3a receptor agonist, amino acid sequence SEQ ID NO: 1", "values": [{"measurement": "right foot faults vs PBS-treated mice at days 14 and 56 post-stroke", "setting": "long-term study, C3a days 7-28, P=0.0097 and P=0.047, Mann-Whitney U test", "result": "significantly fewer right foot faults"}, {"measurement": "grid walking performance day 56 vs pre-stroke baseline", "setting": "long-term study, Dunn's test P=0.103", "result": "did not differ from pre-stroke baseline levels"}, {"measurement": "foot faults day 14 vs day 7 post-stroke (first week of treatment)", "setting": "long-term study, P=0.041 Dunn's test, P=0.039 Wilcoxon test", "result": "significant reduction in foot faults"}, {"measurement": "right paw foot faults, days 14 and 21 vs day 7", "setting": "short-term study, C3a days 7-21, P=0.0545 and P=0.0839, Dunnett's test", "result": "tendency toward reduced number of right paw foot faults"}, {"measurement": "grid walking performance vs baseline at all time points after stroke", "setting": "short-term study, P<0.001, both groups", "result": "significant impairment with respect to the baseline performance"}]}]}
